{"source": "patent US20240238272A1", "about": "“TREATMENT OF ANTIPHOSPHOLIPID SYNDROME USING S-HYDROXYCHLOROQUINE” (Genovate Biotechnology Co. Ltd., priority 2021, published 2024)", "key": {"[1]": {"biological_target": "T1, β2-GP1 and antibody binding (Homo sapiens, UniProt P02749)", "T1 construct": "THP-1 is a human peripheral blood monocyte that highly expresses β2-GP1; endogenous in cells; host or cells: THP-1 (human monocyte cell line): total lysate in the dot blot, whole cells in the ELISA", "T1 sequence (P02749 20-345)": "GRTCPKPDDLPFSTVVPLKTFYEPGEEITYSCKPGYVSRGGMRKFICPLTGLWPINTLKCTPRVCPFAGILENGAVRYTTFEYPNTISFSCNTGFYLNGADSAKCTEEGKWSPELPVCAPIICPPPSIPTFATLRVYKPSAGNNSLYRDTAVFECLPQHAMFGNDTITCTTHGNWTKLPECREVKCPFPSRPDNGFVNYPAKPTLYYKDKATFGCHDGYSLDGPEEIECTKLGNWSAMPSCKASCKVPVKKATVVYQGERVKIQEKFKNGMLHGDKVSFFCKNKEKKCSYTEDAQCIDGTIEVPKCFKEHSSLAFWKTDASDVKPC", "test": "Dot blot assay of β2-GP1 and antibody binding, THP-1 total lysate", "conditions": "10 mg/mL, mean ± S.E.M., triplicate", "procedure": "THP-1 is a human peripheral blood monocyte that highly expresses β2-GP1 and is associated with increased APS in patients. Before treating with HCQ, THP-1 cells were fixed in a 3.7% paraformaldehyde solution, blocked in a phosphate-buffered saline (PBS) containing 1% bovine serum albumin (BSA), and incubated with a mouse aPL antibody (A500-006A, Bethyl Laboratories, Montgomery, Texas). Cellular immunofluorescent staining was used to determine β2-GP1 expression.\nSeparate samples were prepared for a dot blot assay as follows: a THP-1 total lysate was loaded to a polyvinylidene difluoride membrane, blocked with PBS containing 1% BSA, and incubated with mouse anti-β2-GP1 A500-006A, together with S-HCQ, R-HCQ, or racemic HCQ, each at a concentration of 10 mg/mL. A control sample was obtained following the same procedure described above except that no HCQ was added.\n(§1) All assays above were performed in triplicate. Reported results are expressed as means±S.E.M. All statistical analyses were performed using a software under the trademark of GraphPad Prism® (Version 8.0. GraphPad Software Inc, San Diego, California). For comparisons between two groups, student's test was used. A p-value<0.05 was considered statistically significant."}, "E-selectin": {"system": "E-selectin", "test": "APS-related thrombosis mice model, serum expression level of E-selectin", "type": "in vivo", "conditions": "for Inhibition (E-selectin): relative to comparative group; for Thrombosis (E-selectin): serum expression level relative to comparative group", "procedure": "(§2) Venous thrombosis was induced in mice using an endothelial injury model. Mice were intravenously (IV) injected 7.5% FeCl3 (positive control), saline (negative control), or an APS-derived anti-β2GP1 antibody (from Patient 2) at a dosage of 100, 200, or 300 AU (test group). They were anesthetized 72 hours after the injection. The right femoral vein was exposed and pinched with a pressure of 1500 g/mm^2 to induce formation of a thrombus.\n(§3) Based on the APS animal model described above, R-HCQ and S-HCQ were administered to mice for reducing thrombosis. Mice were divided into 6 groups, each of which was injected with (1) IgG as a control group, (2) 100 AU of the anti-β2GPI antibody as a comparative group, (3) a combination of 100 AU of the anti-B2GPI antibody and 300 μg of S-HCQ as treatment group 3, (4) a combination of 100 AU of the anti-B2GPI antibody and 200 μg of S-HCQ as treatment group 4, (5) a combination of 100 AU of the anti-B2GPI antibody and 200 μg of R-HCQ as treatment group 5, or (6) a combination of 100 AU of the anti-β2GP1 antibody and 100 μg of R-HCQ as treatment group 6.\n(§4) Serum expression levels of E-selectin and VCAM-1, two biomarkers of APS-related thrombosis, were measured. Percentages of inhibition in treatment groups 3-6 were calculated based on the expression levels of E-selectin and VCAM-1 relative to the comparative group. A low expression level of E-selectin or VCAM-1 indicates high inhibition of thrombosis."}, "[2]": {"biological_target": "T2, β2-GP1 and antibody binding (THP-1 cells) (Homo sapiens, UniProt P02749)", "T2 construct": "THP-1 is a human peripheral blood monocyte that highly expresses β2-GP1; endogenous in cells; host or cells: THP-1 (human monocyte cell line): total lysate in the dot blot, whole cells in the ELISA", "T2 sequence (P02749 20-345)": "T1 sequence (P02749 20-345)", "test": "ELISA assay of β2-GP1-antibody binding to THP-1 membrane", "type": "cell-based", "procedure": "Subsequently, an ELISA assay was performed to determine whether S-HCQ or R-HCQ inhibiting binding of β2-GP1-antibody complexes to the THP-1 membrane. THP-1 cells thus treated were resuspended to a density of 3.6×10^5 cells/mL in a medium containing 80% RPMI-1640 (Thermo Fisher Scientific, Waltham, Massachusetts), 20% anti-β2-GP1 immunoglobulin G (“IgG”) (0.2 mg/mL) in HEPES-buffered saline (HBS, pH 7.45), and S-HCQ. Three samples were each prepared from a medium having a different S-HCQ concentration, i.e., 1 μg/mL, 2.5 μg/mL, or 5 μg/mL. A control sample was obtained following the same procedure described above except that no S-HCQ was added. Optical absorbance was measured at 450 nm.\nas §1"}, "[3]": {"system": "annexin V on THP-1 cell surfaces", "test": "Restoration of annexin A5 anticoagulant shield on THP-1 cells treated with anti-β2-GP1 IgG", "type": "cell-based, human", "conditions": "0.5 μg/mL HCQ; comparative sample without HCQ = 1", "procedure": "THP-1 cells were first maintained in a RPMI1640 medium (Thermo Fisher Scientific, Waltham, Massachusetts) containing 10% fetal bovine serum, 2 mM L-glutamine, and 50 U/mL penicillin-streptomycin antibiotics. They were then seeded at a density of 8×10^4 cells/well in a 96-well culture plate and were allowed to reach confluence. Subsequently, THP-1 cells were treated with anti-β2-GP1 IgG in the presence of 0.5 μg/mL HCQ. Levels of annexin V on cell surfaces were determined by optical absorbance after the IgG-treated THP-1 cells were rinsed with HBS-CaCl2) solution to remove free annexin V, leaving only annexin V that is attached to the cell surface.\nThree samples were prepared each with one of three HCQ (i.e., S-HCQ, R-HCQ, and racemic HCQ) solutions. A comparative sample was obtained following the same procedure described above except that HCQ was not added. A patient serum containing β2-GP1 antibody was used as a control sample."}, "VCAM-1": {"system": "VCAM-1", "test": "APS-related thrombosis mice model, serum expression level of VCAM-1", "type": "in vivo", "conditions": "for Inhibition (VCAM-1): relative to comparative group; for Thrombosis (VCAM-1): serum expression level relative to comparative group", "procedure": "as §2, §3, §4"}, "[4]": {"system": "APS-related thrombosis (E-selectin and VCAM-1)", "test": "APS-related thrombosis mice model, average of E-selectin and VCAM-1", "type": "in vivo", "procedure": "as §2, §3, §4"}, "[5]": {"system": "thrombosis induced by anti-β2GP1 antibody", "test": "APS-related thrombosis mice model, femoral vein pinch, clot formation", "type": "in vivo, C57BL/6 male mice", "procedure": "C57BL/6 male mice at ages of 8-12 weeks (purchased from BioLasco, Taiwan) were used in this study. All procedures were approved by the Institutional Animal Care Committee of Taipei Medical University. Venous thrombosis was induced in mice using an endothelial injury model. […] They were anesthetized 72 hours after the injection. The right femoral vein was exposed and pinched with a pressure of 1500 g/mm^2 to induce formation of a thrombus. […] As such, the anti-β2GP1 antibody was injected to a mouse at 100 AU for all studies below. Following the procedure described above, a mouse (i.e., HCQ-treated mouse) was injected with 100 AU of the anti-β2GP1 antibody from Patient 5 and 2000 μg racemic-HCQ (200 μl at 10 mg/ml). As a control, a group of mice (n=4; APS-induced mice) were injected with only 100 AU of the anti-β2GP1 antibody. After 72 hours, the right femoral vein of each mouse was exposed and pinched with a pressure of 1500 g/mm^2 to induce formation of a thrombus. Thrombosis time (in minute) was recorded. […] Clots were removed from the femoral vein after pinch for 5 minutes."}}}
{"smiles": "CCN(CCO)CCC[C@H](C)Nc1ccnc2cc(Cl)ccc12", "note": "[S-HCQ, S-(+)-hydroxychloroquine]", "values": [{"measurement": "inhibition of β2-GP1 and antibody binding", "setting": "[1]", "result": 97, "unit": "%"}, {"measurement": "Inhibition (E-selectin)", "setting": "E-selectin; 200 μg", "result": 53.8, "unit": "%"}, {"measurement": "Thrombosis (E-selectin)", "setting": "E-selectin; 200 μg", "result": 46.2, "unit": "%"}, {"measurement": "Inhibition (E-selectin)", "setting": "E-selectin; 300 μg", "result": 59.4, "unit": "%"}, {"measurement": "Thrombosis (E-selectin)", "setting": "E-selectin; 300 μg", "result": 40.6, "unit": "%"}, {"measurement": "inhibition rate of β2-GP1 and antibody binding", "setting": "[2]; 1 μg/mL", "result": 25, "unit": "%"}, {"measurement": "inhibition rate of β2-GP1 and antibody binding", "setting": "[2]; 2.5 μg/mL", "result": 60, "unit": "%"}, {"measurement": "inhibition rate of β2-GP1 and antibody binding", "setting": "[2]; 5 μg/mL", "result": 90, "unit": "%"}, {"measurement": "relative level of annexin V", "setting": "[3]", "result": 3.45}, {"measurement": "Inhibition (VCAM-1)", "setting": "VCAM-1; 200 μg", "result": 49, "unit": "%"}, {"measurement": "Thrombosis (VCAM-1)", "setting": "VCAM-1; 200 μg", "result": 50.9, "unit": "%"}, {"measurement": "Inhibition (VCAM-1)", "setting": "VCAM-1; 300 μg", "result": 52, "unit": "%"}, {"measurement": "Thrombosis (VCAM-1)", "setting": "VCAM-1; 300 μg", "result": 47.8, "unit": "%"}, {"measurement": "Inhibition Average", "setting": "[4]; 200 μg", "result": 51.4, "unit": "%"}, {"measurement": "Thrombosis Average", "setting": "[4]; 200 μg", "result": 48.55, "unit": "%"}, {"measurement": "Inhibition Average", "setting": "[4]; 300 μg", "result": 55.7, "unit": "%"}, {"measurement": "Thrombosis Average", "setting": "[4]; 300 μg", "result": 44.2, "unit": "%"}]}
{"smiles": "CCN(CCO)CCC[C@@H](C)Nc1ccnc2cc(Cl)ccc12", "note": "[R-HCQ, (R)-(−)-hydroxychloroquine]", "values": [{"measurement": "inhibition of β2-GP1 and antibody binding", "setting": "[1]", "result": 23, "unit": "%"}, {"measurement": "Inhibition (E-selectin)", "setting": "E-selectin; 100 μg", "result": 25.2, "unit": "%"}, {"measurement": "Thrombosis (E-selectin)", "setting": "E-selectin; 100 μg", "result": 74.8, "unit": "%"}, {"measurement": "Inhibition (E-selectin)", "setting": "E-selectin; 200 μg", "result": 30, "unit": "%"}, {"measurement": "Thrombosis (E-selectin)", "setting": "E-selectin; 200 μg", "result": 70, "unit": "%"}, {"measurement": "relative level of annexin V", "setting": "[3]", "result": 2.54}, {"measurement": "Inhibition (VCAM-1)", "setting": "VCAM-1; 100 μg", "result": 16.3, "unit": "%"}, {"measurement": "Thrombosis (VCAM-1)", "setting": "VCAM-1; 100 μg", "result": 83.7, "unit": "%"}, {"measurement": "Inhibition (VCAM-1)", "setting": "VCAM-1; 200 μg", "result": 23, "unit": "%"}, {"measurement": "Thrombosis (VCAM-1)", "setting": "VCAM-1; 200 μg", "result": 75, "unit": "%"}, {"measurement": "Inhibition Average", "setting": "[4]; 100 μg", "result": 20.75, "unit": "%"}, {"measurement": "Thrombosis Average", "setting": "[4]; 100 μg", "result": 79.25, "unit": "%"}, {"measurement": "Inhibition Average", "setting": "[4]; 200 μg", "result": 26.5, "unit": "%"}, {"measurement": "Thrombosis Average", "setting": "[4]; 200 μg", "result": 72.5, "unit": "%"}]}
{"smiles": "CCN(CCO)CCCC(C)Nc1ccnc2cc(Cl)ccc12", "note": "(racemic) [racemic HCQ, Hydroxychloroquine]", "values": [{"measurement": "thrombosis time", "setting": "[5]; 2000 μg with 100 AU anti-β2GP1 antibody, 72 hours after injection, healthy mice 5, APS-induced mice 2", "result": 5, "unit": "min"}, {"measurement": "thrombus size", "setting": "[5]; 2000 μg, clots removed after pinch for 5 minutes, versus mice without HCQ treatment", "result": "significantly reduced the thrombus size"}, {"measurement": "inhibition at 10000 µg/mL", "setting": "[1]", "result": 80, "unit": "%"}, {"measurement": "relative level of annexin V", "setting": "[3]", "result": 3.09}]}
